# Assay results reported in patent US20220396569A1 (Carmot Therapeutics, Inc., priority 2021, published 2022).
# Molecular target: T1, human GLP-1 receptor (Homo sapiens, UniProt P43220)
# T1 construct: expressed in transfected cells
# Assay: GLP-1R cAMP Assay (HitHunter cAMP accumulation)
# Format: cell-based
# Details: cAMP accumulation, CHO cells stably overexpressing human GLP-1 receptor, 30 min treatment; read-out: EC50
# Experimental: cAMP accumulation was measured in Chinese hamster ovary (CHO) cells stably overexpressing the human GLP-1 receptor using the HitHunter cAMP Assay for Small Molecules Kit (Eurofins). Briefly, cells were grown in Ham's F12 Nutrient Mix with 10% FBS, and lifted with Cell Dissociation Buffer, Enzyme free, PBS based (ThermoFisher). Cells were pelleted, and resuspended in Hank's buffered saline solution with 10 mM HEPES, and 625 μM 3-isobutyl-1-methylxanthine. The anti-cAMP antibody reagent was then added to cells at a 1:2 ratio and 5 μL of mixture was seeded in 384-well small volume white assay plates, at 10,000 cells/well. Cells were then treated with 50 nL compound using an ECHO 550 acoustic dispenser (Labcyte) in a 20-point dose response format in triplicate for 30 min. Cells were then lysed, and detection reagents added according to the manufacturer's protocol. After overnight incubation, luminescence was measured using a Perkin Elmer Envision plate reader. Dose response curves were analyzed using GraphPad Prism 9.0. […]
# T1 sequence (P43220 24-463): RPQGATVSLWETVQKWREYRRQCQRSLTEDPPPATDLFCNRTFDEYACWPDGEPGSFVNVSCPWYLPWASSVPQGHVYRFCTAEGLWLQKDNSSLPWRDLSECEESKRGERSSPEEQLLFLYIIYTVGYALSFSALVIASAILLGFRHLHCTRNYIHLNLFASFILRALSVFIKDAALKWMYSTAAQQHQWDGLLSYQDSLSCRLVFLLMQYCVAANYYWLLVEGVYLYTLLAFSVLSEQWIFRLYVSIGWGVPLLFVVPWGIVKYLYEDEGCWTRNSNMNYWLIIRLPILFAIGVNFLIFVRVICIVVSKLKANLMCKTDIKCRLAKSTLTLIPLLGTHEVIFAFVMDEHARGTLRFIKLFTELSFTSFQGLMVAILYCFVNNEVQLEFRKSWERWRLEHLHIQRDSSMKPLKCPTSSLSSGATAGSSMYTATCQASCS
row,SMILES,EC50 [nM]
1,"CCn1cncc1Cn1c(CN2CC(Oc3ccnc(COc4ccc(Cl)cc4C#N)c3)C2)nc2ccc(C(=O)O)cc21 [Compound 211, 2-{[3-({2-[(4-chloro-2-cyanophenoxy)methyl]pyridin-4-yl}oxy)azetidin-1-yl]methyl}-1-[(1-ethyl-1H-imidazol-5-yl)methyl]-1H-1,3-benzodiazole-6-carboxylic acid]",< 50
2,"N#CCC1(Cn2c(CN3CC=C(c4ccc(F)c(COc5ccc(C#N)cc5F)n4)C3)nc3ccc(C(=O)O)cc32)CC1 [Compound 422, 2-[(3-{6-[(4-cyano-2-fluorophenoxy)methyl]-5-fluoropyridin-2-yl}-2,5-dihydro-1H-pyrrol-1-yl)methyl]-1-{[l-(cyanomethyl)cyclopropyl]methyl}-1H-1,3-benzodiazole-6-carboxylic acid]",< 50
3,"N#Cc1ccc(OCc2cccc([C@H]3CCN(Cc4nc5c(F)cc(C(=O)O)cc5n4C[C@@H]4CCO4)C3)c2)c(F)c1 [Compound 444, 2-{[(3R)-3-{3-[(4-cyano-2-fluorophenoxy)methyl]phenyl}pyrrolidin-1-yl]methyl}-4-fluoro-1-{[(2S)-oxetan-2-yl]methyl}-1H-1,3-benzodiazole-6-carboxylic acid]",> 500
4,"CCn1cncc1Cn1c(CN2C[C@H](Oc3ccnc(COc4ccc(Cl)cc4Cl)c3)[C@@H]2C)nc2ccc(C(=O)O)cc21 [Compound 273, 2-{[(2S,3S)-3-({2-[(2,4-dichlorophenoxy)methyl]pyridin-4-yl}oxy)-2-methylazetidin-1-yl]methyl}-1-[(1-ethyl-1H-imidazol-5-yl)methyl]-1H-1,3-benzodiazole-6-carboxylic acid]",< 50
5,"N#Cc1ccc(OCc2nc([C@@H]3CCN(Cc4nc5ccc(C(=O)O)cc5n4C[C@@H]4CCO4)C3)ccc2F)c(F)c1 (single isomer, unassigned) [Compound 518]",< 50
6,"O=C(O)c1ccc2nc(CN3CCC(c4ccc(F)c(COc5ccc(Cl)cc5Cl)c4)C3)n(C[C@@H]3CCO3)c2c1 (stereo partly drawn) [Compound 389, 2-[(3-{3-[(2,4-dichlorophenoxy)methyl]-4-fluorophenyl}pyrrolidin-1-yl)methyl]-1-{[(2S)-oxetan-2-yl]methyl}-1H-1,3-benzodiazole-6-carboxylic acid]",< 50
7,"Cc1cc(Oc2ccnc(COc3ccc(C#N)cc3F)n2)ccc1Cc1nc2c(F)cc(C(=O)O)cc2n1C[C@@H]1CCO1 [Compound 540, (S)-2-(4-((2-((4-Cyano-2-fluorophenoxy)methyl)pyrimidin-4-yl)oxy)-2-methylbenzyl)-4-fluoro-1-(oxetan-2-ylmethyl)-1H-benzo[d]imidazole-6-carboxylic acid]",< 50
8,"N#Cc1ccc(OCc2nc([C@@H]3C[C@@H](CF)N(Cc4nc5ccc(C(=O)O)cc5n4C[C@@H]4CCO4)C3)ccc2F)c(F)c1 (single isomer, unassigned) [Compound 527]",< 50
9,"CCn1cncc1Cn1c(CN2CCC(c3cccc(Oc4ccccc4)c3)C2)nc2ccc(C(=O)O)cc21 (racemic) [Example 134, 1-((1-Ethyl-1H-imidazol-5-yl)methyl)-2-((3-(3-phenoxyphenyl)pyrrolidin-1-yl)methyl)-1H-benzo[d]imidazole-6-carboxylic acid]",50 to 500
10,"CCn1cncc1Cn1c(CN2CC(Oc3cccc(COc4ccc(Cl)cc4C#N)c3)C2)nc2ccc(C(=O)O)cc21 [Compound 212, 2-[(3-{3-[(4-chloro-2-cyanophenoxy)methyl]phenoxy}azetidin-1-yl)methyl]-1-[(1-ethyl-1H-imidazol-5-yl)methyl]-1H-1,3-benzodiazole-6-carboxylic acid]",< 50
11,"CCn1cncc1Cn1c(CN2CC(=Cc3cnc(COc4ccc(Cl)cc4C#N)o3)C2)nc2ccc(C(=O)O)cc21 [Compound 225, 2-{[3-({2-[(4-chloro-2-cyanophenoxy)methyl]-1,3-oxazol-5-yl}methylidene)azetidin-1-yl]methyl}-1-[(1-ethyl-1H-imidazol-5-yl)methyl]-1H-1,3-benzodiazole-6-carboxylic acid]",< 50
12,"C[C@H]1[C@@H](Oc2ccnc(COc3ccc(F)cc3C#N)n2)CN1Cc1nc2ccc(C(=O)O)cc2n1C[C@@H]1CCO1 [Compound 549, 2-{[(2S,3S)-3-({2-[(2-cyano-4-fluorophenoxy)methyl]pyrimidin-4-yl}oxy)-2-methylazetidin-1-yl]methyl}-1-{[(2S)-oxetan-2-yl]methyl}-1H-1,3-benzodiazole-6-carboxylic acid]",> 500
13,"Cc1ccc(OCc2cc(Oc3ccc(Cc4nc5ccc(C(=O)O)cc5n4C[C@@H]4CCO4)cn3)ccn2)c(F)c1 [Compound 544, (S)-2-((6-((2-((2-Fluoro-4-methylphenoxy)methyl)pyridin-4-yl)oxy)pyridin-3-yl)methyl)-1-(oxetan-2-ylmethyl)-1H-benzo[d]imidazole-6-carboxylic acid]",< 50
14,"O=C(O)c1ccc2nc(CN3CCC(c4cccc(Oc5ccccc5)c4)C3)n(C[C@@H]3CCO3)c2c1 (stereo partly drawn) [Example 119, 1-(((S)-Oxetan-2-yl)methyl)-2-((3-(3-phenoxyphenyl)pyrrolidin-1-yl)methyl)-1H-benzo[d]imidazole-6-carboxylic acid]",50 to 500
15,"C[C@H]1[C@@H](Oc2ccnc(COc3ccc(C#N)cc3F)n2)CN1Cc1nc2ccc(C(=O)O)cc2n1C[C@@H]1CCO1 [Compound 545, 2-{[(2S,3S)-3-({2-[(4-cyano-2-fluorophenoxy)methyl]pyrimidin-4-yl}oxy)-2-methylazetidin-1-yl]methyl}-1-{[(2S)-oxetan-2-yl]methyl}-1H-1,3-benzodiazole-6-carboxylic acid]",< 50
16,"CCn1cncc1Cn1c(CN2CC[C@@H](Oc3ccnc(COc4ccc(Cl)cc4Cl)c3)C2)nc2ccc(C(=O)O)cc21 [Compound 245, 2-{[(3R)-3-({2-[(2,4-dichlorophenoxy)methyl]pyridin-4-yl}oxy)pyrrolidin-1-yl]methyl}-1-[(1-ethyl-1H-imidazol-5-yl)methyl]-1H-1,3-benzodiazole-6-carboxylic acid]",< 50
17,"O=C(O)c1ccc2nc(CN3CC[C@H](Oc4ccnc(COc5ccc(Cl)cc5F)n4)C3)n(C[C@@H]3CCO3)c2c1 [Example 360, 2-(((S)-3-((2-((4-Chloro-2-fluorophenoxy)methyl)pyrimidin-4-yl)oxy)pyrrolidin-1-yl)methyl)-1-(((S)-oxetan-2-yl)methyl)-1H-benzo[d]imidazole-6-carboxylic acid]",< 50
18,"CCn1cncc1Cn1c(CN2CC(Cc3cccc4c3OC(C)(c3ccc(Cl)cn3)O4)C2)nc2ccc(C(=O)O)cc21 (stereo not shown) [Compound 185, 2-[(3-{[2-(5-chloropyridin-2-yl)-2-methyl-2H-1,3-benzodioxol-4-yl]methyl}azetidin-1-yl)methyl]-1-[(1-ethyl-1H-imidazol-5-yl)methyl]-1H-1,3-benzodiazole-6-carboxylic acid]",50 to 500
19,"O=C(O)c1ccc2nc(CN3CC=C(c4cc(F)cc(COc5ccc(Cl)cc5F)c4)C3)n(C[C@@H]3CCO3)c2c1 [Compound 418, 2-[(3-{3-[(4-chloro-2-fluorophenoxy)methyl]-5-fluorophenyl}-2,5-dihydro-1H-pyrrol-1-yl)methyl]-1-{[(2S)-oxetan-2-yl]methyl}-1H-1,3-benzodiazole-6-carboxylic acid]",< 50
